Measured values taken from the supplement of paper PMC10307832.

How the values were obtained:
Experiment in all cases: relative viability (nuclei count vs DMSO), 5 days (fraction); higher = more cells survive
Omipalisib + Luminespib = compound: COc1ncc(-c2ccc3nccc(-c4ccnnc4)c3c2)cc1NS(=O)(=O)c1ccc(F)cc1F [Omipalisib] + CCNC(=O)c1noc(-c2cc(C(C)C)c(O)cc2O)c1-c1ccc(CN2CCOCC2)cc1 [Luminespib] (partner 0.01 µM)
Summary of the method: (§1)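 Each reported value is a median over duplicate plates. It expresses relative viability: treated-well nuclei count divided by vehicle-well nuclei count. Lung cancer cell lines in 1536-well plates were dosed by pin tool a day after seeding, alone with one drug or with a fixed anchor-drug dose plus five library-drug doses (not always all listed) in √10 steps, and nuclei were counted after 5 days.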

Omipalisib + Pemetrexed = compound: COc1ncc(-c2ccc3nccc(-c4ccnnc4)c3c2)cc1NS(=O)(=O)c1ccc(F)cc1F [Omipalisib] + Nc1nc2[nH]cc(CCc3ccc(C(=O)N[C@@H](CCC(=O)O)C(=O)O)cc3)c2c(=O)[nH]1 [Pemetrexed] (partner 0.2 µM)
Summary of the method: as §1

Omipalisib + Dasatinib = compound: COc1ncc(-c2ccc3nccc(-c4ccnnc4)c3c2)cc1NS(=O)(=O)c1ccc(F)cc1F [Omipalisib] + Cc1nc(Nc2ncc(C(=O)Nc3c(C)cccc3Cl)s2)cc(N2CCN(CCO)CC2)n1 [Dasatinib] (partner 0.075 µM)
Summary of the method: as §1

Omipalisib + Tozasertib = compound: COc1ncc(-c2ccc3nccc(-c4ccnnc4)c3c2)cc1NS(=O)(=O)c1ccc(F)cc1F [Omipalisib] + Cc1cc(Nc2cc(N3CCN(C)CC3)nc(Sc3ccc(NC(=O)C4CC4)cc3)n2)n[nH]1 [Tozasertib] (partner 0.1 µM)
Summary of the method: as §1

Omipalisib + OSI-027 = compound: COc1ncc(-c2ccc3nccc(-c4ccnnc4)c3c2)cc1NS(=O)(=O)c1ccc(F)cc1F [Omipalisib] + COc1cccc2cc(-c3nc([C@H]4CC[C@H](C(=O)O)CC4)n4ncnc(N)c34)[nH]c12 [OSI-027] (partner 0.5 µM)
Summary of the method: as §1

Omipalisib + Trametinib = compound: COc1ncc(-c2ccc3nccc(-c4ccnnc4)c3c2)cc1NS(=O)(=O)c1ccc(F)cc1F [Omipalisib] + CC(=O)Nc1cccc(-n2c(=O)n(C3CC3)c(=O)c3c(Nc4ccc(I)cc4F)n(C)c(=O)c(C)c32)c1 [Trametinib] (partner 0.02 µM)
Summary of the method: as §1

Omipalisib + Olaparib = compound: COc1ncc(-c2ccc3nccc(-c4ccnnc4)c3c2)cc1NS(=O)(=O)c1ccc(F)cc1F [Omipalisib] + O=C(c1cc(Cc2n[nH]c(=O)c3ccccc23)ccc1F)N1CCN(C(=O)C2CC2)CC1 [Olaparib] (partner 8 µM)
Summary of the method: as §1

Omipalisib + Palbociclib = compound: COc1ncc(-c2ccc3nccc(-c4ccnnc4)c3c2)cc1NS(=O)(=O)c1ccc(F)cc1F [Omipalisib] + CC(=O)c1c(C)c2cnc(Nc3ccc(N4CCNCC4)cn3)nc2n(C2CCCC2)c1=O [Palbociclib] (partner 0.5 µM)
Summary of the method: as §1

Omipalisib + Phenformin = compound: COc1ncc(-c2ccc3nccc(-c4ccnnc4)c3c2)cc1NS(=O)(=O)c1ccc(F)cc1F [Omipalisib] + N=C(N)NC(=N)NCCc1ccccc1 [Phenformin] (partner 250 µM)
Summary of the method: as §1

Omipalisib + Decitabine = compound: COc1ncc(-c2ccc3nccc(-c4ccnnc4)c3c2)cc1NS(=O)(=O)c1ccc(F)cc1F [Omipalisib] + Nc1ncn([C@H]2C[C@H](O)[C@@H](CO)O2)c(=O)n1 [Decitabine] (partner 2 µM)
Summary of the method: as §1

Omipalisib + AZD7762 = compound: COc1ncc(-c2ccc3nccc(-c4ccnnc4)c3c2)cc1NS(=O)(=O)c1ccc(F)cc1F [Omipalisib] + NC(=O)Nc1cc(-c2cccc(F)c2)sc1C(=O)N[C@H]1CCCNC1 [AZD7762] (partner 0.2 µM)
Summary of the method: as §1

Omipalisib + Vorinostat = compound: COc1ncc(-c2ccc3nccc(-c4ccnnc4)c3c2)cc1NS(=O)(=O)c1ccc(F)cc1F [Omipalisib] + O=C(CCCCCCC(=O)Nc1ccccc1)NO [Vorinostat] (partner 1 µM)
Summary of the method: as §1

Omipalisib = compound: COc1ncc(-c2ccc3nccc(-c4ccnnc4)c3c2)cc1NS(=O)(=O)c1ccc(F)cc1F [Omipalisib]
Summary of the method: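 Viability here means nuclei in treated wells divided by nuclei in vehicle wells, reported as the median across plates. Only plates with control CV below 25% and at least one doubling passed. Lung cancer cell lines in 1536-well plates were exposed to five √10-spaced library-drug doses for 5 days and counted from 4× Hoechst images in MetaXpress.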

Omipalisib + Alpelisib = compound: COc1ncc(-c2ccc3nccc(-c4ccnnc4)c3c2)cc1NS(=O)(=O)c1ccc(F)cc1F [Omipalisib] + Cc1nc(NC(=O)N2CCC[C@H]2C(N)=O)sc1-c1ccnc(C(C)(C)C(F)(F)F)c1 [Alpelisib] (partner 2 µM)
Summary of the method: as §1

Omipalisib + Pictilisib = compound: COc1ncc(-c2ccc3nccc(-c4ccnnc4)c3c2)cc1NS(=O)(=O)c1ccc(F)cc1F [Omipalisib] + CS(=O)(=O)N1CCN(Cc2cc3nc(-c4cccc5[nH]ncc45)nc(N4CCOCC4)c3s2)CC1 [Pictilisib] (partner 1 µM)
Summary of the method: as §1

Omipalisib + Linsitinib = compound: COc1ncc(-c2ccc3nccc(-c4ccnnc4)c3c2)cc1NS(=O)(=O)c1ccc(F)cc1F [Omipalisib] + C[C@]1(O)C[C@@H](c2nc(-c3ccc4ccc(-c5ccccc5)nc4c3)c3c(N)nccn32)C1 [Linsitinib] (partner 1 µM)
Summary of the method: as §1

Omipalisib + Crizotinib = compound: COc1ncc(-c2ccc3nccc(-c4ccnnc4)c3c2)cc1NS(=O)(=O)c1ccc(F)cc1F [Omipalisib] + C[C@@H](Oc1cc(-c2cnn(C3CCNCC3)c2)cnc1N)c1c(Cl)ccc(F)c1Cl [Crizotinib] (partner 1 µM)
Summary of the method: as §1

Omipalisib + Foretinib = compound: COc1ncc(-c2ccc3nccc(-c4ccnnc4)c3c2)cc1NS(=O)(=O)c1ccc(F)cc1F [Omipalisib] + COc1cc2c(Oc3ccc(NC(=O)C4(C(=O)Nc5ccc(F)cc5)CC4)cc3F)ccnc2cc1OCCCN1CCOCC1 [Foretinib] (partner 0.25 µM)
Summary of the method: as §1

Omipalisib + Bortezomib = compound: COc1ncc(-c2ccc3nccc(-c4ccnnc4)c3c2)cc1NS(=O)(=O)c1ccc(F)cc1F [Omipalisib] + CC(C)C[C@H](NC(=O)[C@H](Cc1ccccc1)NC(=O)c1cnccn1)B(O)O [Bortezomib] (partner 0.002 µM)
Summary of the method: as §1

Omipalisib + Lapatinib = compound: COc1ncc(-c2ccc3nccc(-c4ccnnc4)c3c2)cc1NS(=O)(=O)c1ccc(F)cc1F [Omipalisib] + CS(=O)(=O)CCNCc1ccc(-c2ccc3ncnc(Nc4ccc(OCc5cccc(F)c5)c(Cl)c4)c3c2)o1 [Lapatinib] (partner 2 µM)
Summary of the method: as §1

Cell Line: NCI-H522
- relative viability (Omipalisib + Luminespib; first compound 0.0003 µM): 1.04
- relative viability (Omipalisib + Luminespib; first compound 0.003 µM): 1.89
- relative viability (Omipalisib + Luminespib; first compound 0.03 µM): 0.652
- relative viability (Omipalisib + Pemetrexed; first compound 0.0003 µM): 0.963
- relative viability (Omipalisib + Pemetrexed; first compound 0.003 µM): 0.932
- relative viability (Omipalisib + Pemetrexed; first compound 0.03 µM): 0.636
- relative viability (Omipalisib + Dasatinib; first compound 0.0003 µM): 0.857
- relative viability (Omipalisib + Dasatinib; first compound 0.003 µM): 0.745
- relative viability (Omipalisib + Dasatinib; first compound 0.03 µM): 0.626
- relative viability (Omipalisib + Tozasertib; first compound 0.0003 µM): 0.515
- relative viability (Omipalisib + Tozasertib; first compound 0.003 µM): 0.451
- relative viability (Omipalisib + Tozasertib; first compound 0.03 µM): 0.438
- relative viability (Omipalisib + OSI-027; first compound 0.0003 µM): 0.69
- relative viability (Omipalisib + OSI-027; first compound 0.003 µM): 0.641
- relative viability (Omipalisib + OSI-027; first compound 0.03 µM): 0.531
- relative viability (Omipalisib + Trametinib; first compound 0.0003 µM): 0.746
- relative viability (Omipalisib + Trametinib; first compound 0.003 µM): 0.604
- relative viability (Omipalisib + Trametinib; first compound 0.03 µM): 0.443
- relative viability (Omipalisib + Olaparib; first compound 0.0003 µM): 0.532
- relative viability (Omipalisib + Olaparib; first compound 0.003 µM): 0.614
- relative viability (Omipalisib + Olaparib; first compound 0.03 µM): 0.505
- relative viability (Omipalisib + Palbociclib; first compound 0.0003 µM): 1.01
- relative viability (Omipalisib + Palbociclib; first compound 0.003 µM): 0.823
- relative viability (Omipalisib + Palbociclib; first compound 0.03 µM): 0.532
- relative viability (Omipalisib + Phenformin; first compound 0.0003 µM): 0.604
- relative viability (Omipalisib + Phenformin; first compound 0.003 µM): 0.559
- relative viability (Omipalisib + Phenformin; first compound 0.03 µM): 0.583
- relative viability (Omipalisib + Decitabine; first compound 0.0003 µM): 0.665
- relative viability (Omipalisib + Decitabine; first compound 0.003 µM): 0.596
- relative viability (Omipalisib + Decitabine; first compound 0.03 µM): 0.595
- relative viability (Omipalisib + AZD7762; first compound 0.0003 µM): 0.652
- relative viability (Omipalisib + AZD7762; first compound 0.003 µM): 0.58
- relative viability (Omipalisib + AZD7762; first compound 0.03 µM): 0.839
- relative viability (Omipalisib + Vorinostat; first compound 0.0003 µM): 0.837
- relative viability (Omipalisib + Vorinostat; first compound 0.003 µM): 0.766
- relative viability (Omipalisib + Vorinostat; first compound 0.03 µM): 0.724
- relative viability (Omipalisib; 0.0003 µM): 0.838
- relative viability (Omipalisib; 0.003 µM): 0.912
- relative viability (Omipalisib; 0.03 µM): 0.694

Cell Line: NCI-H1563
- relative viability (Omipalisib + Luminespib; first compound 0.0003 µM): 0.557
- relative viability (Omipalisib + Luminespib; first compound 0.003 µM): 0.515
- relative viability (Omipalisib + Luminespib; first compound 0.03 µM): 0.445
- relative viability (Omipalisib + Alpelisib; first compound 0.0003 µM): 0.756
- relative viability (Omipalisib + Alpelisib; first compound 0.003 µM): 0.841
- relative viability (Omipalisib + Alpelisib; first compound 0.03 µM): 0.587
- relative viability (Omipalisib + Pictilisib; first compound 0.0003 µM): 0.575
- relative viability (Omipalisib + Pictilisib; first compound 0.003 µM): 0.67
- relative viability (Omipalisib + Pictilisib; first compound 0.03 µM): 0.694
- relative viability (Omipalisib + Linsitinib; first compound 0.0003 µM): 0.844
- relative viability (Omipalisib + Linsitinib; first compound 0.003 µM): 0.992
- relative viability (Omipalisib + Linsitinib; first compound 0.03 µM): 0.77
- relative viability (Omipalisib + Pemetrexed; first compound 0.0003 µM): 0.714
- relative viability (Omipalisib + Pemetrexed; first compound 0.003 µM): 0.616
- relative viability (Omipalisib + Pemetrexed; first compound 0.03 µM): 0.462
- relative viability (Omipalisib + Dasatinib; first compound 0.0003 µM): 0.484
- relative viability (Omipalisib + Dasatinib; first compound 0.003 µM): 0.442
- relative viability (Omipalisib + Dasatinib; first compound 0.03 µM): 0.354
- relative viability (Omipalisib + Crizotinib; first compound 0.0003 µM): 0.698
- relative viability (Omipalisib + Crizotinib; first compound 0.003 µM): 0.796
- relative viability (Omipalisib + Crizotinib; first compound 0.03 µM): 0.609
- relative viability (Omipalisib + OSI-027; first compound 0.0003 µM): 0.759
- relative viability (Omipalisib + OSI-027; first compound 0.003 µM): 0.583
- relative viability (Omipalisib + OSI-027; first compound 0.03 µM): 0.602
- relative viability (Omipalisib + Foretinib; first compound 0.0003 µM): 0.841
- relative viability (Omipalisib + Foretinib; first compound 0.003 µM): 0.806
- relative viability (Omipalisib + Foretinib; first compound 0.03 µM): 0.585
- relative viability (Omipalisib + Bortezomib; first compound 0.0003 µM): 0.756
- relative viability (Omipalisib + Bortezomib; first compound 0.003 µM): 0.667
- relative viability (Omipalisib + Bortezomib; first compound 0.03 µM): 0.7
- relative viability (Omipalisib + Phenformin; first compound 0.0003 µM): 0.639
- relative viability (Omipalisib + Phenformin; first compound 0.003 µM): 0.579
- relative viability (Omipalisib + Phenformin; first compound 0.03 µM): 0.535
- relative viability (Omipalisib + Lapatinib; first compound 0.0003 µM): 0.747
- relative viability (Omipalisib + Lapatinib; first compound 0.003 µM): 0.848
- relative viability (Omipalisib + Lapatinib; first compound 0.03 µM): 0.747
- relative viability (Omipalisib; 0.0003 µM): 0.87
- relative viability (Omipalisib; 0.003 µM): 0.801
- relative viability (Omipalisib; 0.03 µM): 0.577
